Experimental data from US8563553B2, “Compounds and compositions as protein kinase inhibitors” (Novartis AG, priority 2009, dated 2013).

The compounds below were run against b-Raf(V600E) (Homo sapiens (Human), UniProt P15056, V600E) (assay: Raf/Mek Amplified Luminescence Proximity Homogeneous Assay (Alpha Screen)). Conditions: b-Raf(V600E) approximately 4 pM; biotinylated Mek, kinase dead approximately 10 nM; ATP 10 μM; pre-incubation 60 minutes; reaction 3 hours at room temperature; read-out: mut-B-RAF IC50.
Type: biochemical
Experimental: Raf/Mek Amplified Luminescence Proximity Homogeneous Assay
Assay buffer: 50 mM Tris, pH 7.5, 15 mM MgCl2, 0.01% Bovine Serum Albumin (BSA), 1 mM dithiothreitol (DTT) Stop buffer: 60 mM ethylenediaminetetraacetic acid (EDTA), 0.01% Tween® 20 Bead buffer: 50 mM Tris, pH 7.5, 0.01% Tween® 20 […]
biotinylated Mek, kinase dead
Alpha Screen detection kit (available from PerkinElmer™, #6760617R)
Anti phospho-MEK1/2 (available from Cell Signaling Technology, Inc. #9121) 384 well assay plates (White Greiner® plates, #781207) […]
biotinylated Mek, Kinase dead approximately 10 nM
Pre-incubation time with compounds 60 minutes at room temperature
Reaction time 1 or 3 hours at room temperature
Raf and biotinylated Mek, kinase dead, were combined at 2× final concentrations in assay buffer (50 mM Tris, pH 7.5, 15 mM MgCl2, 0.01% BSA and 1 mM DTT) and dispensed 10 μl per well in assay plates (Greiner white 384 well assay plates #781207) containing 0.5 μl of 40× of a raf kinase inhibitor test compound diluted in 100% DMSO. The plate was incubated for 60 minutes at room temperature.
The Raf kinase activity reaction was started by the addition of 10 μL per well of 2×ATP diluted in assay buffer. […] Phosphorylated product was measured using a rabbit anti-p-MEK (Cell Signaling, #9121) antibody and the Alpha Screen IgG (ProteinA) detection Kit (PerkinElmer #6760617R), by the addition of 30 μL to the well of a mixture of the antibody (1:2000 dilution) and detection beads (1:2000 dilution of both beads) in bead buffer (50 mM Tris, pH 7.5, 0.01% Tween20). The additions were carried out under dark conditions to protect the detection beads from light. A lid was placed on top of the plate and incubated for 1 hour at room temperature, then the luminescence was read on a PerkinElmer Envision instrument. The concentration of each compound for 50% inhibition (IC50) was calculated by non-linear regression using XL Fit data analysis software.

Sequence of b-Raf(V600E) (P15056 whole entry V600E): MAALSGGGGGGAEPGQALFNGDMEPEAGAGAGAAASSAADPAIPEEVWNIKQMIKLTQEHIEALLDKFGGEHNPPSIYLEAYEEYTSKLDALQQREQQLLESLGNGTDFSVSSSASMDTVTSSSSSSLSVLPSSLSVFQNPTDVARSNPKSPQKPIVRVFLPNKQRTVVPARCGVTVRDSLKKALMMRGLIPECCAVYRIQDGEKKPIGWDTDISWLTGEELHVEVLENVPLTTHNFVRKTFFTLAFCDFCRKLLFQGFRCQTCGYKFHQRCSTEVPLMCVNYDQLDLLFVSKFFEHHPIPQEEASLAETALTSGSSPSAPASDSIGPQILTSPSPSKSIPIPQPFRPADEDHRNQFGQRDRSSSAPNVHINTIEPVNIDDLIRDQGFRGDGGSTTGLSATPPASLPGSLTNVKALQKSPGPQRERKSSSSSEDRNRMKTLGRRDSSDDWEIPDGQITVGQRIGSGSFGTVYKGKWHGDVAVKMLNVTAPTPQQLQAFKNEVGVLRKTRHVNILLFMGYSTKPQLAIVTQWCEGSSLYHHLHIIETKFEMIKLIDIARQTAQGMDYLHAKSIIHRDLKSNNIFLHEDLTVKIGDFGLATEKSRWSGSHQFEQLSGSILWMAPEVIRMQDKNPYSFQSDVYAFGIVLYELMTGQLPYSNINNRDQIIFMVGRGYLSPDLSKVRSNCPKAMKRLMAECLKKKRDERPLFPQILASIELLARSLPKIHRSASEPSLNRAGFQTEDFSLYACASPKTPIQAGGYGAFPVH

Compound | IC50
CCS(=O)(=O)Nc1cc(Cl)cc(-c2[nH]c(C3CC3)nc2-c2ccnc(NC[C@H](C)NC(=O)OC)n2)c1F [Example 1Z, (S)-Methyl 1-(4-(5-(5-chloro-3-(ethylsulfonamido)-2-fluorophenyl)-2-cyclopropyl-1H-imidazol-4-yl)pyrimidin-2-ylamino)propan-2-ylcarbamate] | 0.24 nM
O=S(=O)(Nc1cc(F)cc(-c2nc(C3CC3)[nH]c2-c2ccncn2)c1Cl)c1c(F)cccc1F [Example 2I, N-(2-Chloro-3-(2-cyclopropyl-5-(pyrimidin-4-yl)-1H-imidazol-4-yl)-5-fluorophenyl)-2,6-difluorobenzenesulfonamide] | 1 nM
COC(=O)N[C@@H](C)CNc1nccc(-c2nc(C(C)(C)C)[nH]c2-c2cc(NS(=O)(=O)C(C)C)cc(OC(F)F)c2)n1 [Example 1P, (S)-Methyl 1-(4-(2-tert-butyl-5-(3-(difluoromethoxy)-5-(1-methylethylsulfonamido)phenyl)-1H-imidazol-4-yl)pyrimidin-2-ylamino)propan-2-ylcarbamate] | 11.2 nM
CCCS(=O)(=O)Nc1cccc(-c2nc(C3CC3)[nH]c2-c2ccnc(NC[C@H](C)NC(=O)OC)n2)c1Cl [Example 4A-3, (S)-methyl 1-(4-(4-(2-chloro-3-(propylsulfonamido)phenyl)-2-cyclopropyl-1H-imidazol-5-yl)pyrimidin-2-ylamino)propan-2-ylcarbamate] | 0.13 nM
COC(=O)N[C@@H](C)CNc1nccc(-c2[nH]c(C(C)(C)C)nc2-c2cc(Cl)cc(NS(=O)(=O)C3CC3)c2C)n1 [Example 1N, (S)-Methyl 1-(4-(2-tert-butyl-4-(5-chloro-3-(cyclopropanesulfonamido)-2-methylphenyl)-1H-imidazol-5-yl)pyrimidin-2-ylamino)propan-2-ylcarbamate] | 204 nM
COC(=O)N[C@@H](C)CNc1nccc(-c2[nH]c(C3CC3)nc2-c2cccc(NS(C)(=O)=O)c2F)n1 [Example 1U, (S)-Methyl 1-(4-(2-cyclopropyl-4-(2-fluoro-3-(methylsulfonamido)phenyl)-1H-imidazol-5-yl)pyrimidin-2-ylamino)propan-2-ylcarbamate] | 0.55 nM
CCCS(=O)(=O)Nc1cccc(-c2nc(C3CC3)[nH]c2-c2ccnc(NC[C@H](C)NC(=O)OC)n2)c1F [Example 4C, (S)-Methyl 1-(4-(2-cyclopropyl-4-(2-fluoro-3-(propylsulfonamido)phenyl)-1H-imidazol-5-yl)pyrimidin-2-ylamino)propan-2-ylcarbamate] | 0.16 nM
COC(=O)N[C@@H](C)CNc1nccc(-c2[nH]c(C3CC3)nc2-c2cc(Cl)cc(NS(=O)(=O)c3ccc(C(F)(F)F)cc3)c2F)n1 [Example 1BN, (S)-Methyl 1-(4-(4-(5-chloro-2-fluoro-3-(4-(trifluoromethyl)phenylsulfonamido)phenyl)-2-cyclopropyl-1H-imidazol-5-yl)pyrimidin-2-ylamino)propan-2-ylcarbamate] | 7 nM
COC(=O)N[C@@H](C)CNc1nccc(-c2[nH]c(C3CC3)nc2-c2cc(F)cc(NS(C)(=O)=O)c2F)n1 [Example 1V, Methyl (2S)-1-(4-(2-cyclopropyl-4-(2,5-difluoro-3-(methylsulfonamido)phenyl)-1H-imidazol-5-yl)pyrimidin-2-ylamino)propan-2-ylcarbamate] | 0.2 nM
CC(C)(C)c1nc(-c2cccc(NS(=O)(=O)c3c(F)cccc3F)c2Cl)c(-c2ccnc(N)n2)[nH]1 [Example 1BK, N-(3-(5-(2-Aminopyrimidin-4-yl)-2-tert-butyl-1H-imidazol-4-yl)-2-chlorophenyl)-2,6-difluorobenzenesulfonamide] | 0.22 nM
CNc1nccc(-c2[nH]c(C3CC3)nc2-c2cc(F)cc(NS(C)(=O)=O)c2Cl)n1 [Example 1BW, N-(2-Chloro-3-(2-cyclopropyl-5-(2-(methylamino)pyrimidin-4-yl)-1H-imidazol-4-yl)-5-fluorophenyl)methanesulfonamide] | 31 nM
COC(=O)N[C@@H](C)CNc1nccc(-c2[nH]c(-c3ccc(F)cc3F)nc2-c2cc(F)cc(NS(C)(=O)=O)c2Cl)n1 [Example 1BY] | 2040 nM
CCCNc1nccc(-c2[nH]c(C3CC3)nc2-c2cc(F)cc(NS(C)(=O)=O)c2Cl)n1 [Example 1AP, N-(2-Chloro-3-(2-cyclopropyl-5-(2-(propylamino)pyrimidin-4-yl)-1H-imidazol-4-yl)-5-fluorophenyl)methanesulfonamide] | 5 nM
COC(=O)N[C@@H](C)CNc1nccc(-c2[nH]c(C3CC3)nc2-c2c(F)ccc(NS(C)(=O)=O)c2Cl)n1 [Example 2F, Methyl (2S)-1-(4-(4-(2-chloro-6-fluoro-3-(methylsulfonamido)phenyl)-2-cyclopropyl-1H-imidazol-5-yl)pyrimidin-2-ylamino)propan-2-ylcarbamate] | 5 nM
COC(=O)N[C@@H](C)CNc1nccc(-c2[nH]c(C3CC3)nc2-c2cc(Cl)cc(NS(=O)(=O)c3cc(F)cc(F)c3)c2F)n1 [Example 1BM, (S)-Methyl 1-(4-(4-(5-chloro-3-(3,5-difluorophenylsulfonamido)-2-fluorophenyl)-2-cyclopropyl-1H-imidazol-5-yl)pyrimidin-2-ylamino)propan-2-ylcarbamate] | 0.37 nM
CCCS(=O)(=O)Nc1ccc(F)c(-c2nc(C3CC3)[nH]c2-c2ccnc(NC[C@H](C)NC(=O)OC)n2)c1Cl [Example 1AF, Methyl (2S)-1-(4-(4-(2-chloro-6-fluoro-3-(propylsulfonamido)phenyl)-2-cyclopropyl-1H-imidazol-5-yl)pyrimidin-2-ylamino)propan-2-ylcarbamate] | 0.45 nM
CCCS(=O)(=O)Nc1cc(Cl)cc(-c2[nH]c(C3CC3)nc2-c2ccnc(NC[C@H](C)NC(=O)OC)n2)c1F [Example 1W, (S)-Methyl 1-(4-(5-(5-chloro-2-fluoro-3-(propylsulfonamido)phenyl)-2-cyclopropyl-1H-imidazol-4-yl)pyrimidin-2-ylamino)propan-2-ylcarbamate] | 0.89 nM
CCCS(=O)(=O)Nc1cccc(-c2nc(C(C)(C)C)[nH]c2-c2ccnc(NC[C@H](C)NC(=O)OC)n2)c1F [Example 4B, (S)-Methyl 1-(4-(2-tert-butyl-4-(2-fluoro-3-(propylsulfonamido)phenyl)-1H-imidazol-5-yl)pyrimidin-2-ylamino)propan-2-ylcarbamate] | 0.38 nM
CCCS(=O)(=O)Nc1cc(F)cc(-c2nc(C3CC3)[nH]c2-c2ccnc(NC)n2)c1Cl [Example 1BX, N-(2-Chloro-3-(2-cyclopropyl-5-(2-(methylamino)pyrimidin-4-yl)-1H-imidazol-4-yl)-5-fluorophenyl)propane-1-sulfonamide] | 0.11 nM
COC(=O)N[C@@H](C)CNc1nccc(-c2[nH]c(C(C)(C)C)nc2-c2cc(Cl)cc(NS(C)(=O)=O)c2)n1 [Example 1C, (S)-Methyl 1-(4-(2-tert-butyl-4-(3-chloro-5-(methylsulfonamido)phenyl)-1H-imidazol-5-yl)pyrimidin-2-ylamino)propan-2-ylcarbamate] | 0.32 nM
COC(=O)N[C@@H](C)CNc1nccc(-c2[nH]c(C(C)(C)C)nc2-c2cc(Cl)cc(NS(=O)(=O)C(C)C)c2C)n1 [Example 1O, (S)-Methyl 1-(4-(2-tert-butyl-4-(5-chloro-2-methyl-3-(1-methylethylsulfonamido)phenyl)-1H-imidazol-5-yl)pyrimidin-2-ylamino)propan-2-ylcarbamate] | 67.2 nM
CS(=O)(=O)Nc1cc(Cl)cc(-c2nc(C3CC3)[nH]c2-c2ccnc(N)n2)c1F [Example 1BG, N-(3-(5-(2-Aminopyrimidin-4-yl)-2-cyclopropyl-1H-imidazol-4-yl)-5-chloro-2-fluorophenyl)methanesulfonamide] | 4 nM
C[C@H](O)CNc1nccc(-c2[nH]c(C3CC3)nc2-c2cccc(NS(C)(=O)=O)c2F)n1 [Example 3B, (S)—N-(3-(2-cyclopropyl-5-(2-(2-hydroxypropylamino)pyrimidin-4-yl)-1H-imidazol-4-yl)-2-fluorophenyl)methanesulfonamide] | 28 nM
CCS(=O)(=O)Nc1cc(Cl)cc(-c2nc(C(C)(C)C)[nH]c2-c2ccnc(NC[C@H](C)NC(=O)OC)n2)c1 [Example 1I, (S)-Methyl 1-(4-(2-tert-butyl-4-(3-chloro-5-(ethylsulfonamido)phenyl)-1H-imidazol-5-yl)pyrimidin-2-ylamino)propan-2-ylcarbamate] | 0.1 nM
CCS(=O)(=O)Nc1cc(F)cc(-c2nc(C3CC3)[nH]c2-c2ccnc(NC[C@H](C)NC(=O)OC)n2)c1Cl [Example 1AD, (S)-Methyl 1-(4-(4-(2-chloro-3-(ethylsulfonamido)-5-fluorophenyl)-2-cyclopropyl-1H-imidazol-5-yl)pyrimidin-2-ylamino)propan-2-ylcarbamate] | 0.43 nM
